These results are taken from ChEMBL document CHEMBL1130254, “Screening solution-phase combinatorial libraries using pulsed ultrafiltration/electrospray mass spectrometry” (J Med Chem, 1997).

Molecules are shown by their SMILES.

The nature of data set [1]: Relative ion enhancement, determined in pulsed ultrafiltration. The class given is ADME.
In data set [2] the target is T1, Adenosine deaminase (Homo sapiens) (UniProt P00813).
T1 sequence (whole entry): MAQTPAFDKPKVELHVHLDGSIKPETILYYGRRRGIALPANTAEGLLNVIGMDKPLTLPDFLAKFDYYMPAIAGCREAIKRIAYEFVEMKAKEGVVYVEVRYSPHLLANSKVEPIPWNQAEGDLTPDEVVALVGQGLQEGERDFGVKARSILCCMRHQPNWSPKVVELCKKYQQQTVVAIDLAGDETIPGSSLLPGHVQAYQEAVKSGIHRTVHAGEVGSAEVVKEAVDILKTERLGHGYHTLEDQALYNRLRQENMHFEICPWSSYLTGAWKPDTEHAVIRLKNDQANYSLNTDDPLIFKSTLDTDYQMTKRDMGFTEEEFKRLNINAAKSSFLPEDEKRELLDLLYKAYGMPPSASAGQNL
Description: Adenosine deaminase inhibition index

For `CCCCCCCCC(C(C)O)n1cnc2c(N)ncnc21` (stereo unspecified), the Ion enhancement in data set [1] was 5.3. In addition, the ([I]/[S]0.5) in data set [2] is 0.00016.
The matching figures for `CCCCCC[C@@H]([C@@H](C)O)n1cnc2c(N)ncnc21` [EHNA]: 1 and 0.00042.
The like results for `CC(O)C(Cc1ccccc1)n1cnc2c(N)ncnc21` (stereo unspecified) were, in that order, under 0.01 and 0.069.
